Results as given in patent publication US6821980B1, “Substituted 5-benzyl-2,4-diaminopyrimidines” (Basilea Pharmaceutica AG, priority 1999, dated 2004).
≈ marks a conversion by molar mass, not a printed value. Where two headings read alike, the source gives them in different places.

How the values were obtained:
[1] = tested on: Streptococcus pneumoniae 1/1; assay: MIC against Streptococcus pneumoniae 1/1; type: cell-based; conditions: Streptococcus pneumoniae 1/1, trimethoprim- and penicillin-resistant, serotype 6, clinical isolate; for MIC: read-out: MIC Sp1/1
[2] = target: purified DHFR of strain 157/4696 of Staphylococcus aureus (Staphylococcus aureus, UniProt P13955); assay: biochemical
[3] = tested on: Staphylococcus aureus 101; assay: MIC against Staphylococcus aureus 101; type: cell-based; conditions: Staphylococcus aureus 101, MRSA- and trimethoprim-resistant, clinical isolate; for MIC: read-out: MIC Sa101
[4] = target: T1, purified DHFR of strain Sp1/1 of Streptococcus pneumoniae (Streptococcus pneumoniae serotype 4, UniProt Q54801); type: biochemical; conditions: IC50 against purified DHFR of strain Sp1/1
T1 sequence (Q54801 1-168 I100L): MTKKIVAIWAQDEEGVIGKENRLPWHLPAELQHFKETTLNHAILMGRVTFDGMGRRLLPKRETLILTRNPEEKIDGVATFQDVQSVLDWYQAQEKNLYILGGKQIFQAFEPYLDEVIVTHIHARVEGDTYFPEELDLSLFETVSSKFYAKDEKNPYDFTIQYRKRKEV

[5] = Table 2, IC50 against purified DHFR of strain 157/4696 (highly trimethoprim-resistant; clinical isolate), read-out: DHFR Sa1

Sequence of purified DHFR of strain 157/4696 of Staphylococcus aureus (P13955 whole entry): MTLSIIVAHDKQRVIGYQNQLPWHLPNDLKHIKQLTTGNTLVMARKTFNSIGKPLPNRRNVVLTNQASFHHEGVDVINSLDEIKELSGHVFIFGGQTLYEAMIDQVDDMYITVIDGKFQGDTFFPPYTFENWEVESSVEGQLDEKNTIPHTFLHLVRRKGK

SMILES	MIC ([1]; Table 2) [µg/mL]	IC50 [2] [nM]	MIC ([3]; Table 2) [µg/mL]	IC50 ([4]; Table 2) [nM]	MIC ([1]; Table 1) [µg/mL]	MIC ([3]; Table 1) [µg/mL]	IC50 ([4]; Table 1) [nM]	MIC Sp1/1 ([1]; Table 2) [µg/mL]	IC50 [2, 5] [nM]	MIC Sa101 ([3]; Table 2) [µg/mL]
CCOc1cc(Cc2cnc(N)nc2N)cc(OS(=O)(=O)C(C)CC)c1-c1ccc(OC)c(N)c1 (centres unmarked) [Example 35-d, Butane-2-sulphonic acid 3′-amino-4-(2,4-diamino-gyrimidin-5-ylmethyl)-6-ethoxy-4′-methoxy-biphenyl-2-yl ester]	1 (≈ 1.99 µM)	95	2 (≈ 3.99 µM)	4.3	–	–	–	–	–	–
CCOc1cc(Cc2cnc(N)nc2N)cc(OS(=O)(=O)C(C)CC)c1-c1ccc(NCCO)cc1 (centres unmarked) [Example 35-f, Butane-2-sulphonic acid 4-(2,4-diamino-pyrimidin-5-ylmethyl)-6-ethoxy-4′-(2-hydroxy-ethylamino)-biphenyl-2-yl ester]	0.5 (≈ 0.97 µM)	120	4 (≈ 7.76 µM)	8.5	–	–	–	–	–	–
CCOc1cc(Cc2cnc(N)nc2N)cc(OS(=O)(=O)C(C)CC)c1-c1ccc(N)cc1 (centres unmarked) [Example 35a, Butane-2-sulphonic acid 4′-amino-4-(2,4-diamino-pyrimidin-5-ylmethyl)-6ethoxy-biphenyl-2-yl ester]	–	110	–	–	0.5 (≈ 1.06 µM)	2 (≈ 4.24 µM)	3.7	–	–	–
CCOc1cc(Cc2cnc(N)nc2N)cc(OS(=O)(=O)C(C)CC)c1-c1ccc(N)c(C)c1 (centres unmarked) [Example 35e, Butane-2-sulphonic acid 4′-amino-4-(2,4-diamino-pyrimidin-5-ylmethyl)-6-ethoxy-3′-methyl-biphenyl-2-yl ester]	–	62	–	–	0.5 (≈ 1.03 µM)	1 (≈ 2.06 µM)	4.6	–	–	–
CCOc1cc(Cc2cnc(N)nc2N)cc(OS(=O)(=O)CC(C)C)c1-c1ccc(N)c(C)c1 [Example 36-a, 2-Methyl-propane-1-sulphonic acid 4′-amino-4-(2,4-diamino-pyrimidin-5-ylmethyl)-6-ethoxy-3′-methyl-biphenyl-2-yl ester]	0.25 (≈ 0.515 µM)	32	2 (≈ 4.12 µM)	3.3	–	–	–	–	–	–
CCOc1cc(Cc2cnc(N)nc2N)cc(OS(=O)(=O)CC(C)C)c1-c1ccc(N)c(F)c1 [Example 36-b, 2-Methyl-propane-1-sulphonic acid 4′-amino-4-(2,4-diamino-pyrimidin-5-ylmethyl)-6-ethoxy-3′-fluoro-biphenyl-2-yl ester]	0.5 (≈ 1.02 µM)	230	8 (≈ 16.3 µM)	5.8	–	–	–	–	–	–
CCOc1cc(Cc2cnc(N)nc2N)cc(OS(=O)(=O)CC(C)C)c1-c1ccc(N)cc1 [Example 36-c, 2-Methyl-propane-1-sulphonic acid 4′-amino-4-(2,4-diamino-pyrimidin-5-ylmethyl)-6-ethoxy-biphenyl-2-yl ester]	0.5 (≈ 1.06 µM)	240	2 (≈ 4.24 µM)	4.8	–	–	–	–	–	–
CCOc1cc(Cc2cnc(N)nc2N)cc(OS(=O)(=O)CC(C)C)c1-c1ccc(OC)c(N)c1 [Example 36-d, 2-Methyl-prooane-1-sulphonic acid 3′-amino-4-(2,4-diamino-pyrimidin-5-ylmethyl)-6-ethoxy-4′-methoxy-biphenyl-2-yl ester]	0.5 (≈ 0.997 µM)	66	2 (≈ 3.99 µM)	0.68	–	–	–	–	–	–
CCOc1cc(Cc2cnc(N)nc2N)cc(OS(=O)(=O)CC(C)C)c1-c1ccc(NCCO)cc1 [Example 36-e, 2-Methyl-propane-1-sulphonic acid 4-(2,4-diamino-pyrimidin-5-ylmethyl)-6-ethoxy-4′-(2-hydroxy-ethylamino)-biphenyl-2-yl ester]	0.5 (≈ 0.97 µM)	250	4 (≈ 7.76 µM)	2.1	–	–	–	–	–	–
CCOc1cc(Cc2cnc(N)nc2N)cc(OS(=O)(=O)CC(C)(C)C)c1-c1ccc(N)c(F)c1 [Example 37-a, 2,2-Dimethyl-propane-1-sulphonic acid 4′-amino-4-(2,4-diamino-pyrimidin-5-ylmethyl)-6-ethoxy-3′-fluoro-biphenyl-2-yl ester]	0.25 (≈ 0.496 µM)	550	4 (≈ 7.94 µM)	4.5	–	–	–	–	–	–
CCOc1cc(Cc2cnc(N)nc2N)cc(OS(=O)(=O)CC(C)(C)C)c1-c1ccc(OC)c(N)c1 [Example 37-b, 2,2-Dimethyl-propane-1-sulphonic acid 3′-amino-4-(2,4-diamino-pyrimidin-5-ylmethyl)-6-ethoxy-4′-methoxy-biphenyl-2-yl ester]	0.25 (≈ 0.485 µM)	260	4 (≈ 7.76 µM)	1.7	–	–	–	–	–	–
CCOc1cc(Cc2cnc(N)nc2N)cc(OS(=O)(=O)CC(C)(C)C)c1-c1ccc(N)cc1 [Example 37-c, 2,2-Dimethyl-propane-1-sulphonic acid 4′-amino-4-(2,4-diamino-pyrimidin-5-ylmethyl)-6-ethoxy-biphenyl-2-yl ester]	0.5 (≈ 1.03 µM)	580	4 (≈ 8.24 µM)	1.8	–	–	–	–	–	–
CCOc1cc(Cc2cnc(N)nc2N)cc(OS(=O)(=O)CC(C)(C)C)c1-c1ccc(NCCO)cc1 [Example 37-d, 2,2-Dimethyl-propane-1-sulphonic acid 4-(2,4-diamino-pyrimidin-5-ylmethyl)-6-ethoxy-4′-(2-hydroxy-ethylamino)-biphenyl-2-yl ester]	0.25 (≈ 0.472 µM)	290	8 (≈ 15.1 µM)	1.5	–	–	–	–	–	–
CCOc1cc(Cc2cnc(N)nc2N)cc(OS(=O)(=O)CC2CC2)c1-c1cccc(N)c1 [Example 38-a, Cyclopropylmethane-sulphonic acid 3′-amino-4-(2,4-diamino-pyrimidin-5-ylmethyl)-6ethoxy-biphenyl-2-yl ester]	1 (≈ 2.13 µM)	160	2 (≈ 4.26 µM)	5.2	–	–	–	–	–	–
CCOc1cc(Cc2cnc(N)nc2N)cc(OS(=O)(=O)CC2CC2)c1-c1ccc(N)c(F)c1 [Example 38-b, Cyclopropylmethane-sulphonic acid 4′-amino-4-(2,4-diamino-pyrimidin-5-ylmethyl)-6-ethoxy-3′-fluoro-4-ylmethyl-biphenyl-2-yl ester]	–	–	–	6.5	–	–	–	1 (≈ 2.05 µM)	220	2 (≈ 4.1 µM)
CCOc1cc(Cc2cnc(N)nc2N)cc(OS(=O)(=O)CC2CC2)c1-c1ccc(N)c(C)c1 [Example 38-c, Cyclopropylmethane-sulphonic acid 4′-amino-4-(2,4-diamino-pyrimidin-5-ylmethyl)-6-ethoxg-3′-methyl-biphenyl-2-yl ester]	0.5 (≈ 1.03 µM)	190	2 (≈ 4.14 µM)	5.8	–	–	–	–	–	–
CCOc1cc(Cc2cnc(N)nc2N)cc(OS(=O)(=O)CC2CC2)c1-c1ccc(CN2CCOCC2)c(N)c1 [Example 38-d, Cyclopropylmethane-sulphonic acid 3′-amino-4-(2,4-diamino-pyrimidin-5-ylmethyl)-6-ethoxy-4′-morpholinemethyl-biphenyl-2-yl ester]	–	–	–	3.2	–	–	–	1 (≈ 1.76 µM)	240	4 (≈ 7.03 µM)
CCOc1cc(Cc2cnc(N)nc2N)cc(OS(=O)(=O)CC(C)(C)OC)c1-c1cccc(N)c1 [Example 39-a, (2-Methoxy-2-methyl-propane)-1-sulphonic acid 3′-amino-4-(2,4-diamino-pyrimidin-5-ylmethyl)-6-ethoxy-biphenyl-2-yl ester]	1 (≈ 1.99 µM)	390	4 (≈ 7.97 µM)	4.2	–	–	–	–	–	–
CCOc1cc(Cc2cnc(N)nc2N)cc(OS(=O)(=O)CC(C)(C)OC)c1-c1ccc(N)c(C)c1 [Example 39-b, (2-Methoxy-2-methyl-propane)-1-sulphonic acid 4′-amino-4-(2,4-diamino-pyrimidin-5-ylmethyl)-6-ethoxy-3′-methyl-biphenyl-2-yl ester]	0.5 (≈ 0.97 µM)	250	4 (≈ 7.76 µM)	4.9	–	–	–	–	–	–
CCOc1cc(Cc2cnc(N)nc2N)cc(OS(=O)(=O)CC(C)(C)OC)c1-c1ccc(N)c(F)c1 [Example 39-c, (2-Methoxg-2-methyl-propane)-1-sulphonic acid 4′-amino-4-(2,4-diamino-pyrimidin-5-ylmethyl)-6-ethoxy-3′-fluoro-4-ylmethyl-biphenyl-2-yl ester]	–	–	–	14	–	–	–	1 (≈ 1.92 µM)	1000	8 (≈ 15.4 µM)
CCOc1cc(Cc2cnc(N)nc2N)cc(OS(=O)(=O)CC(C)(C)OC)c1-c1ccc(CN2CCOCC2)c(N)c1 [Example 39-d, (2-Methoxy-2-methyl-propane)-1-sulphonic acid 3′-amino-4-(2,4-diamino-pyrimidin-5-ylmethyl)-6-ethoxy-4′-morpholinemethyl-biphenyl-2-yl ester]	–	–	–	2.6	–	–	–	2 (≈ 3.33 µM)	410	8 (≈ 13.3 µM)
CCOc1cc(Cc2cnc(N)nc2N)cc(OS(=O)(=O)C2CCC2)c1-c1cccc(N)c1 [Example 40-a, Cyclobutane-sulphonic acid 3′-amino-4-(2,4-diamino-pyrimidin-5-ylmethyl)-6-ethoxy-biphenyl-2-yl ester]	1 (≈ 2.13 µM)	52	2 (≈ 4.26 µM)	6.5	–	–	–	–	–	–
CCOc1cc(Cc2cnc(N)nc2N)cc(OS(=O)(=O)C2CCC2)c1-c1ccc(N)c(F)c1 [Example 40-b, Cylobutane-sulphonic acid 4′-amino-4-(2,4-diamino-pyrimidin-5-ylmethyl)-6-ethoxy-3′-fluoro-4-ylmethyl-biphenyl-2-yl ester]	–	–	–	27	–	–	–	1 (≈ 2.05 µM)	310	2 (≈ 4.1 µM)
